Values of other authors, collected in patent EP1368050B1, “VIRUS DERIVED ANTIMICROBIAL PEPTIDES” (priority 2001, dated 2008).
Residues, ends and D or L forms follow the SMILES beside them.

Legend:
Staphylococcus aureus = details: 1x10^5 colony-forming units; cited from earlier work
[1] = tested on: Ca^2+-saturated calmodulin; details: host cell Ca^2+-saturated calmodulin; cited from earlier work
Pseudomonas aeruginosa = details: 1x10^5 colony-forming units; cited from earlier work

## CC[C@H](C)[C@H](NC(=O)[C@H](C)NC(=O)[C@H](CCCNC(=N)N)NC(=O)[C@H](CS)NC(=O)[C@H](C)NC(=O)CNC(=O)[C@H](CCC(N)=O)NC(=O)[C@@H](NC(=O)[C@@H](NC(=O)[C@H](CCC(=O)O)NC(=O)[C@@H](NC(=O)[C@@H](NC(=O)[C@@H](N)CCCNC(=N)N)C(C)C)[C@@H](C)CC)C(C)C)C(C)C)C(=O)N[C@@H](CCCNC(=N)N)C(=O)N[C@@H](Cc1c[nH]cn1)C(=O)N[C@H](C(=O)N1CCC[C@H]1C(=O)N[C@@H](CCCNC(=N)N)C(=O)N[C@@H](CCCNC(=N)N)C(=O)N[C@H](C(=O)N[C@@H](CCCNC(=N)N)C(=O)N[C@@H](CCC(N)=O)C(=O)NCC(=O)N[C@@H](CC(C)C)C(=O)N[C@@H](CCC(=O)O)C(=O)N[C@@H](CCCNC(=N)N)C(=O)N[C@H](C(=O)N[C@@H](CC(C)C)C(=O)O)[C@@H](C)CC)[C@@H](C)CC)[C@@H](C)CC [LLP1] (H-RVIEVVQGACRAIRHIPRRIRQGLERIL-OH; N-terminus and C-terminus assumed)
Staphylococcus aureus
  time to nearly sterilize a suspension: ≤ 60 s
[1]
  affinity for calmodulin: near nanomolar affinity
Pseudomonas aeruginosa
  time to nearly sterilize a suspension: ≤ 60 s
